US9889094B2, “Particle size reduction of an antimuscarinic compound” (CHIESI FARMACEUTICI S.p.A., priority 2013, dated 2018)
Read-outs that look alike come from different tables or passages of the source.

Experiments:
[1] = Drying and re-dispersion after wet bead milling in acetone (comparative example); assay type: physicochemical; conditions: wet bead milled in acetone, 200 rpm, 60 minutes; dried at 25° C. under low vacuum; white to off-white solid cake
Protocol: The vessel was sealed and the suspension homogenized into the planetary mill apparatus disclosed in WO 2007/020407, which is incorporated herein by reference in its entirety, at a disc speed of 200 rpm for 60 minutes at ambient temperature and pressure. After 60 minutes, the resulting drug suspension is separated from the milling media by filtering through a nylon mesh and the resulting drug suspension loaded into a drying tray.

[2] = Crystallinity / polymorphic form by DVS; assay type: physicochemical; conditions: Example 4 final product (dichloromethane) compared to the initial coarse drug
[3] = Crystallinity / polymorphic form by X-ray powder diffraction and DSC; assay type: physicochemical; conditions: for XRD: Example 1 powder, storage 22±2° C., 60% relative humidity
[4] = Specific surface area by BET nitrogen adsorption; assay type: physicochemical; conditions: Example 1 powder; for BET SSA: storage 22±2° C., 60% relative humidity
Protocol: Advantageously, the specific surface area of the obtained particles upon drying and sieving, is from to 8 m^2/g, advantageously from to 7 m^2/g, preferably from 3 to 6 m^2/g. The Specific Surface Area is determined by Brunauer-Emmett-Teller (BET) nitrogen adsorption method according to a procedure known in the art.
Alternatively, the physical stability may be measured using the specific surface area of the drug particles analysed by adsorption analysis, BET surface measurement, according to a method known to the skilled person.
Specific surface area (SSA) of the dried and sieved particles, analyzed by BET nitrogen adsorption method, was determined to be of about 4.3 m^2/g.

[5] = Scanning Electron Microscopy (SEM) of particles; assay type: physicochemical; conditions: after the homogenization step, Example 1 (2H,3H-decafluoropentane); platelet-like particles
[6] = Example 1 powder (2H,3H-decafluoropentane), storage 22±2° C., 60% relative humidity, time 0
[7] = Example 1 powder, storage 22±2° C., 60% relative humidity, 1 W
[8] = Example 1 powder, storage 22±2° C., 60% relative humidity, 2 W
[9] = Example 1 powder, storage 22±2° C., 60% relative humidity, 3 M
[10] = Example 1 powder, storage 22±2° C., 60% relative humidity, 4 W
[11] = Example 4 powder (dichloromethane), time 0
[12] = Example 5 powder (perfluoroheptane isomer mixture), 45 minutes processing, time 0

- PSD d(v0.1) [6]: 0.71
- PSD d(v0.5) [6]: 1.85
- PSD d(v0.9) [6]: 4.77
- d(v0.5) (Example 1 powder after micronization and drying (2H,3H-decafluoropentane)): 1.85 μm
- change of particle size upon storage (Example 1 powder, storage 22±2° C., 60% relative humidity, up to 3 months): does not significantly change
- PSD d(v0.1) [7]: 0.72
- PSD d(v0.5) [7]: 1.92
- PSD d(v0.9) [7]: 5.03
- PSD d(v0.1) [8]: 0.72
- PSD d(v0.5) [8]: 1.88
- PSD d(v0.9) [8]: 4.95
- PSD d(v0.1) [9]: 0.75
- PSD d(v0.5) [9]: 2.07
- PSD d(v0.9) [9]: 5.26
- PSD d(v0.1) [10]: 0.72
- PSD d(v0.5) [10]: 1.93
- PSD d(v0.9) [10]: 4.97
- PSD d(v0.1) [11]: 0.80
- PSD d(v0.5) [11]: 2.06
- PSD d(v0.9) [11]: 6.46
- d(v0.5) (Example 4 powder after micronization and drying (dichloromethane)): 2.06 μm
- PSD d(v0.1) [12]: 0.66
- PSD d(v0.5) [12]: 1.70
- PSD d(v0.9) [12]: 4.31
- XRD ([3]; 4 W): Crystalline
- XRD ([3]; time 0): Crystalline
- Specific surface area (SSA) ([4]; dried and sieved particles): about 4.3 m^2/g
- BET SSA ([4]; 1 W): 4.198 m^2/g
- BET SSA ([4]; 2 W): 4.210 m^2/g
- BET SSA ([4]; 3 M): 4.00 m^2/g
- BET SSA ([4]; 4 W): 4.086 m^2/g
- BET SSA ([4]; time 0): 4.326 m^2/g
- average particle size by SEM [5]: below 5 μm
Compound: C[N+]1(C)CCC(OC(=O)C(O)(c2ccccc2)C2CCCC2)C1 (racemic) [rac-glycopyrronium bromide, (3S,2′R), (3R,2′S)-3-[(cyclopentylhydroxyphenylacetyl)oxy]-1,1-dimethylpyrrolidinium bromide]
- re-dispersibility of dried product [1]: could not be re-dispersed under mechanical agitation
- change in degree of crystallinity or polymorphic form (DVS) [2]: no change in degree of crystallinity or polymorphic form
- change in degree of crystallinity or polymorphic form (XPRD and DSC) ([3]; Example 1 final product compared to the initial coarse drug): no change in degree of crystallinity or polymorphic form
